# Data reported in US6337348B1, “Oxy-vanadium (iv) complexes having spermicidal activity” (Parker Hughes Institute, priority 1998, dated 2002).
# Key:
# human sperm [1] = test: Sperm immobilization assay (SIA), motility by CASA; format: cell-based; settings: read-out: EC50 (concentration that decreases the proportion of motile sperm by 50%); 3 hours incubation at 37° C., BWW-0.3% BSA, serial 2-fold dilutions 250 μM to 1.9 μM, mean of two experiments
# Description: To evaluate the spermicidal effects of complexes of oxovanadium (IV), VO(phen), VO(phen)2, VO(Me2—phen), VO(Me2—phen)2, VO(Cl—phen), VO(Cl—phen)2], VO(bipy), VO(bipy)2, VO(Me2—bipy), VO(Me2—bipy)2, and VO(Br,OH—acph)2, a highly motile fraction of pooled donor sperm (N=5) was prepared by discontinuous (90−45%). Percoll gradient (Conception Technologies, San Diego, Calif.) centrifugation and the “swim-up” method as described previously (Aitken et al., 1989, Biol. Reprod. 40:183-197). All donor specimens were obtained after informed consent and in compliance with the guidelines of the Hughes Institutional Review Board. Motile sperm (≳10×10^6/ml) were suspended in 1 ml of Biggers, Whitten, and Whittingham's medium (BWW) containing 0.3% BSA (fraction V; Sigma Chemical Co., St. Louis, Mo.) in the presence and absence of serial 2-fold dilutions of test substance (250 μM−1.9 μM) in 0.25% dimethyl sulfoxide (DMSO). For each experiment, fresh stock solutions (100 mM) of vanadium compounds were prepared in DMSO. A corresponding volume of DMSO (0.25%) was added to control sperm suspension. After 3 hours of incubation at 37° C., the percentage of motile sperm was evaluated by computer-assisted sperm motion analysis (CASA) as described previously (Aitken et al., 1989, Supra). The percentages of motilities were compared with those of sham-treated control suspensions of motile sperm.
# For CASA, 4 μl each of sperm suspension was loaded into two 20 μm Microcell chambers placed onto a counting chamber at 37° C. At least 5-8 fields per chamber were scanned for analysis using a Hamilton Thorne Integrated Visual Optical System (IVOS) version 10 instrument (Hamilton Thorne Research Inc., Danvers, Mass.). Each field was recorded for 30 seconds. The Hamilton Thorne computer calibrations were set at 30 frames at a frame rate of 30 images/seconds. Other settings were as follows: minimum contrast 8; minimum size 6; low-size gate, 1.0; high-size gate,2.9; low-intensity gate, 0.6; high-intensity gate, 1.4; phase-contrast illumination; low path velocity at 10 μm/seconds and threshold straightness at 80%; magnification factor, 1.95. The performance of the analyzer was periodically checked using the playback function.
# Results for the various numerical sperm functional parameters are presented as mean±standard deviation (SD) values. Comparison between oxovanadium (IV) complex-treated and control sperm relative to sperm motility parameters and apoptosis were performed using paired, two-tailed Student's T-test. A p value of <0.05 was considered significant.
# human sperm [2] = test: Flow cytometric quantitation of sperm acrosome reaction (anti-CD46 mAb binding); format: cell-based; settings: tested at 100 μM, 3 hours, 37° C., mean of two experiments
# Description: In experiments designed to assess the comparative effects of oxovanadium (IV) complexes and N-9 on sperm acrosome reaction, motile fractions of sperm (10^7/ml) prepared from a single donor were incubated in 1 ml of BWW−0.3% BSA in the presence of 100 μM each of the vanadocene complexes, VO(phen), VO(phen)2, VO(Me2—phen), VO(Me2—phen)2, VO(Cl—phen), VO(Cl—phen)2, VO(bipy), VO(bipy)2, VO(Me2—bipy), VO(Me2—bipy)2, and VO(Br,OH—acph)2 in 0.1% DMSO, N-9, or DMSO (0.1%) alone at 37° C. After 3 hours, 5 μg/ml of purified, phycoerythrin (PE)-conjugated murine anti-CD46 monoclonal antibody (mAb; clone 122-2; Research Diagnostics, Flanders, N.J.) was added and the sperm suspensions incubated for an additional 30 minutes. The suspensions was washed in Tyrode's salt solution (Sigma) containing 1% BSA (1% TBSA) and the percentage of CD46-positive sperm were analyzed by flow cytometry using a FACS Vantage flow cytometer (Becton Dickinson, Mountain View, Calif.), as described previously (DeCruz et al., 1996, Biol Reprod. 54:1217-1228; DeCruz et al., 1992, Fertil. Seril., 58:633-636). Two separate experiments were performed to quantitate acrosomal loss following exposure of sperm to oxovanadium (IV) complexes.
substance,measurement,setting,value
"nonoxynol-9 [N-9, reference compound]",EC50,human sperm [1],78.5 µM
same,Anti-CD46 positive sperm (%),human sperm [2],86%
